Results from US20210113501A1, “METHOD OF ADMINISTERING BETA-HYDROXY-BETA-METHYLBUTYRATE (HMB)” (Metabolic Technologies, Inc., priority 2009, published 2021).

Experiment: Study 2 blood chemistry
Assay type: in vivo, human
Conditions: for Aspartate Aminotransferase / Gamma-glutamyl: in U/L (unit assumed)
Experimental: Study 2 design. Study 2 was conducted similar to study 1 with the following modifications. In study 2, plasma levels of HMB were measured for 1440 min (24 h) and total urine collection was also performed for measurement of urinary HMB excretion during this period. After the 180 min blood sample, the subjects were allowed to leave the laboratory and were instructed to return to the laboratory for additional blood samples at 360, 720, and 1440 min after the ingestion of the supplement. As in study 1, each subject took each of the treatments with at least a one week washout period between treatments. Samples were again stored frozen at −70° C. for analysis of plasma and urinary HMB concentrations. Pre-ingestion, 180 min and 1440 min blood samples were again assayed for the same measurements already for study 1. Subjects were provided with a standardized lunch after the 180 min blood sampling and instructed to eat this at approximately 240 min post ingestion. Following the 720 min blood sample, subjects were instructed to eat a normal evening meal before 10 pm. Subjects reported back to the laboratory the following morning for the fasted 1440 min blood sample. A urine collection container was provided and subjects collected all urine produced during the experimental 24 h experimental period. The urine was stored refrigerated when not being collected. Urine volumes were measured and samples of the total urine collection were taken and stored frozen at −70° C. until analyzed for HMB.
The data were analyzed using a crossover design with Proc GLM in SAS. (45) For the timed sampling of plasma HMB a repeated measures polynomial model was used. The model included subject, order, and treatment main effects and time by treatment interaction where appropriate. For other parameters Proc GLM was also used with subject, order, and treatment main effects and the p values are reported for the treatment main effect. Statistical significance was determined for p<0.05 and a trend was determined for 0.05<p<0.10.

SMILES: CC(C)(O)CC(=O)O [HMB-Acid Gel Sublingual, 3-hydroxy-3-methylbutyric acid]
- A:G Ratio (After (24 h)): 1.8 ± 0.1
- Alanine Aminotransferase (After (24 h)): 16.6 ± 1.8 IU/L
- Albumin (After (24 h)): 4.2 ± 0.1 g/dL
- Alkaline Phosphatase (After (24 h)): 62.8 ± 6.7 IU/L
- Blood Urea Nitrogen (After (24 h)): 15.4 ± 1.1 mg/dL
- CO2 (After (24 h)): 27.9 ± 0.4 mEq/L
- Chloride (After (24 h)): 104.3 ± 0.9 mEq/L
- Cholesterol Ratio (After (24 h)): 3.2 ± 0.2
- Creatinine (After (24 h)): 1.0 ± 0.1 mg/dL
- Direct Bilirubin (After (24 h)): 0.1 ± 0.04 mg/dL
- Globulin (After (24 h)): 2.4 ± 0.1 g/dL
- Glucose (After (24 h)): 80.8 ± 2.1 mg/dL
- HDL (After (24 h)): 51.3 ± 2.8 mg/dL
- Iron (After (24 h)): 65.0 ± 12.1 µg/dL
- Iron Binding Capacity (After (24 h)): 385.0 ± 29.8 µg/dL
- Iron Saturation (After (24 h)): 20.1 ± 4.2%
- LDL (After (24 h)): 90.4 ± 6.8 mg/dL
- Lactate Dehydrogenase (After (24 h)): 151.8 ± 5.2 IU/L
- Phosphorus (After (24 h)): 4.6 ± 0.2 mg/dL
- Potassium (After (24 h)): 4.9 ± 0.1 mEq/L
- Protein (After (24 h)): 6.6 ± 0.2 g/dL
- Sodium (After (24 h)): 142.1 ± 1.1 mEq/L
- Total Bilirubin (After (24 h)): 0.5 ± 0.1 mg/dL
- Total Cholesterol (After (24 h)): 163.3 ± 9.3 mg/dL
- Triglycerides (After (24 h)): 107.6 ± 16.6 mg/dL
- UIBC (After (24 h)): 312.0 ± 35.9 µg/dL
- Uric Acid (After (24 h)): 4.7 ± 0.3 mg/dL
- Aspartate Aminotransferase (After (24 h)): 24.8 ± 2.3
- Gamma-glutamyl (After (24 h)): 13.9 ± 1.0
- A:G Ratio (Before): 1.8 ± 0.1
- Alanine Aminotransferase (Before): 15.3 ± 1.5 IU/L
- Albumin (Before): 4.1 ± 0.1 g/dL
- Alkaline Phosphatase (Before): 66.5 ± 7.3 IU/L
- Blood Urea Nitrogen (Before): 15.3 ± 1.7 mg/dL
- CO2 (Before): 25.3 ± 0.8 mEq/L
- Chloride (Before): 102.1 ± 0.5 mEq/L
- Cholesterol Ratio (Before): 3.1 ± 0.2
- Creatinine (Before): 1.0 ± 0.1 mg/dL
- Direct Bilirubin (Before): 0.1 ± 0.03 mg/dL
- Globulin (Before): 2.3 ± 0.1 g/dL
- Glucose (Before): 73.0 ± 1.8 mg/dL
- HDL (Before): 52.3 ± 3.1 mg/dL
- Iron (Before): 107.6 ± 13.7 µg/dL
- Iron Binding Capacity (Before): 371.9 ± 31.4 µg/dL
- Iron Saturation (Before): 30.1 ± 5.1%
- LDL (Before): 91.3 ± 5.9 mg/dL
- Lactate Dehydrogenase (Before): 163.8 ± 11.9 IU/L
- Phosphorus (Before): 4.1 ± 0.1 mg/dL
- Potassium (Before): 4.0 ± 0.1 mEq/L
- Protein (Before): 6.5 ± 0.2 g/dL
- Sodium (Before): 138.5 ± 0.6 mEq/L
- Total Bilirubin (Before): 0.6 ± 0.1 mg/dL
- Total Cholesterol (Before): 161.6 ± 9.4 mg/dL
- Triglycerides (Before): 93.1 ± 10.6 mg/dL
- UIBC (Before): 264.3 ± 33.3 µg/dL
- Uric Acid (Before): 4.7 ± 0.3 mg/dL
- A:G Ratio % Change (Before to After): −1.4%
- Alanine Aminotransferase % Change (Before to After): 9.0%
- Albumin % Change (Before to After): 2.7%
- Alkaline Phosphatase % Change (Before to After): −5.6%
- Aspartate Aminotransferase % Change (Before to After): 3.7%
- Blood Urea Nitrogen % Change (Before to After): 0.8%
- CO2 % Change (Before to After): 10.4%
- Chloride % Change (Before to After): 2.1%
- Cholesterol Ratio % Change (Before to After): 3.6%
- Creatinine % Change (Before to After): 7.9%
- Direct Bilirubin % Change (Before to After): −12.8%
- Gamma-glutamyl % Change (Before to After): 0.0%
- Globulin % Change (Before to After): 3.2%
- Glucose % Change (Before to After): 10.6%
- HDL % Change (Before to After): −1.9%
- Iron % Change (Before to After): −39.6%
- Iron Binding Capacity % Change (Before to After): 3.5%
- Iron Saturation % Change (Before to After): −33.2%
- LDL % Change (Before to After): −1.0%
- Lactate Dehydrogenase % Change (Before to After): −7.3%
- Phosphorus % Change (Before to After): 11.5%
- Potassium % Change (Before to After): 21.7%
- Protein % Change (Before to After): 2.9%
- Sodium % Change (Before to After): 2.6%
- Total Bilirubin % Change (Before to After): −13.3%
- Total Cholesterol % Change (Before to After): 1.0%
- Triglycerides % Change (Before to After): 15.6%
- UIBC % Change (Before to After): 18.1%
- Uric Acid % Change (Before to After): 0.8%
- Aspartate Aminotransferase (Before): 23.9 ± 3.2
- Gamma-glutamyl (Before): 13.9±1.2
